Values joined by “and” are separate entries in the source; they are usually repeats but may differ in a detail not shown here. Identical values can stand only once. Non-standard residues stand in square brackets, D forms with d. Residues, ends and D or L forms follow the SMILES beside them. pS = N[C@@H](COP(=O)(O)O)C(=O)O
Assays:
Type in all cases: binding
14-3-3 theta = molecular target: T1, 14-3-3 theta (Homo sapiens, UniProt P27348); assay: FP displacement assay, 14-3-3 theta; conditions: probe FITC-2BTP; technical triplicates
T1 construct: GST (cleaved yes); made in house; host or cells: Escherichia coli BL21-Gold(DE3)
T1 sequence (P27348 1-245): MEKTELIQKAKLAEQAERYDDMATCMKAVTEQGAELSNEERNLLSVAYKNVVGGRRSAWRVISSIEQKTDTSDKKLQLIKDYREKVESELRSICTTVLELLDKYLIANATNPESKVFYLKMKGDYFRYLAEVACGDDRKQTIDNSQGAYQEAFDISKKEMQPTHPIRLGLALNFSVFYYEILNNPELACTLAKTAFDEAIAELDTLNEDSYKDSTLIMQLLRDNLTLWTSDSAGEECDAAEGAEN
Description: (§1) FP experiments were performed as described previously (Kliche et al, [2021]). Shortly, in order to monitor the binding event, FITC‐labelled peptides were used (excitation 495 nm, emission: 535 nm) and the FP signal was recorded in mP on a SpectraMax iD5 Multi‐Mode Microplate Reader (Molecular Devices) by measuring the emitted light in two angels. The measurements were performed at room temperature and prepared in nonbinding black half area 96‐well microplates (Corning®; 50 μl/well). For measuring direct binding, that is saturation curves, a 1:1 dilution series of protein domain (25 μl/well) was generated in 50 mM sodium phosphate buffer pH 7.4 and the measurement performed with 5 nM FITC‐labelled peptide (25 μl/well). The buffer‐corrected values were subsequently plotted with PRISM and fitted to the quadratic equation (Gianni et al, [2005]).
(§2) The 1:1 dilution series in this experiment was performed with the unlabelled peptide in 50 mM sodium phosphate buffer pH 7.4, so that each well‐contained unlabelled peptide (25 μl) at a certain concentration and pre‐formed complex (25 μl). The KD values of this indirectly monitored binding event were calculated as described previously (Nikolovska‐Coleska et al, [2004]). All measurements were at least in technical triplicates as well as biological duplicates when indicated. An amplitude shift between repeat measurements in the displacement experiments was occasionally observed due to variations in the protein preparations. If that was the case, the “active” protein concentration was back‐calculated according to the quadratic equation from the saturation curves performed in parallel. By comparing the active protein concentrations in the complex between different protein preparations, the amplitude was normalised.

Clathrin NTD [1] = molecular target: T2, Clathrin NTD (Homo sapiens, UniProt Q00610); assay: ITC, clathrin NTD; conditions: ITC (iTC200), 50 mM sodium phosphate pH 7.4, 1 mM DTT; average of the runs, at least technical triplicates
T2 construct: GST (cleaved yes); made in house; host or cells: Escherichia coli BL21-Gold(DE3)
T2 sequence (Q00610 1-364): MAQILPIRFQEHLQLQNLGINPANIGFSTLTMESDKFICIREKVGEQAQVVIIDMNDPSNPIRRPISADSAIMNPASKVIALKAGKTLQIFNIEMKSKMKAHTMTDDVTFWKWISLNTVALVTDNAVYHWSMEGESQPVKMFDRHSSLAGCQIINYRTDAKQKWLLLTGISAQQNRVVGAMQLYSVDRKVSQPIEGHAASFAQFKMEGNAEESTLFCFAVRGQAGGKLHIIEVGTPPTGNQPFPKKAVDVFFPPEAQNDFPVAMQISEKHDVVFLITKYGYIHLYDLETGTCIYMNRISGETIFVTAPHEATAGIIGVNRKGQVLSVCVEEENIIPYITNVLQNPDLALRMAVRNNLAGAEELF

Clathrin NTD [2] = molecular target: T2, Clathrin NTD; assay: FP displacement assay, clathrin NTD
Description: as §1, §2

Row | Molecule | binding in FP displacement experiment (14-3-3 theta) | Kd (Clathrin NTD [1]) | Kd (Clathrin NTD [2]) [µM] | IC50 (Clathrin NTD [2]; Fig 6A, clathrin NTD, FP displacement, two to three technical replicates per protein preparation, 2 independent preparations, read-out: IC50 values of displacement curves, with SEM) [µM]
1 | CC[C@H](C)[C@H](NC(=O)[C@H](CC(C)C)NC(=O)[C@H](CC(N)=O)NC(=O)CNC(=O)CNC(=O)[C@H](Cc1ccc(O)cc1)NC(C)=O)C(=O)N[C@H](C(=O)N[C@@H](Cc1ccccc1)C(=O)N[C@@H](CO)C(=O)N1CCC[C@H]1C(=O)N[C@@H](CC(C)C)C(=O)N[C@@H](CCC(N)=O)C(=O)N1CCC[C@H]1C(=O)NCC(=O)N[C@@H](CCC(=O)O)C(=O)N[C@@H](Cc1ccccc1)C(N)=O)[C@@H](C)O [HURP832–846 wt] (Ac-YGGNLITFSPLQPGEF-NH2) |  | 266 µM | 134 ± 16 | 
2 | CC[C@H](C)[C@H](NC(=O)[C@H](CC(C)C)NC(=O)[C@H](CC(N)=O)NC(=O)CNC(=O)CNC(=O)[C@H](Cc1ccc(O)cc1)NC(C)=O)C(=O)N[C@H](C(=O)N[C@@H](Cc1ccccc1)C(=O)N[C@@H](COP(=O)(O)O)C(=O)N1CCC[C@H]1C(=O)N[C@@H](CC(C)C)C(=O)N[C@@H](CCC(N)=O)C(=O)N1CCC[C@H]1C(=O)NCC(=O)N[C@@H](CCC(=O)O)C(=O)N[C@@H](Cc1ccccc1)C(N)=O)[C@@H](C)O [HURP832–846 pS] (Ac-YGGNLITF[pS]PLQPGEF-NH2) |  | 5 µM and 3 µM | < 3 | 11 ± 4
3 | CC[C@H](C)[C@H](NC(=O)[C@H](CC(C)C)NC(=O)[C@H](CC(N)=O)NC(=O)CNC(=O)CNC(=O)[C@H](Cc1ccc(O)cc1)NC(C)=O)C(=O)N[C@H](C(=O)N[C@@H](Cc1ccccc1)C(=O)N[C@@H](CCC(=O)O)C(=O)N1CCC[C@H]1C(=O)N[C@@H](CC(C)C)C(=O)N[C@@H](CCC(N)=O)C(=O)N1CCC[C@H]1C(=O)NCC(=O)N[C@@H](CCC(=O)O)C(=O)N[C@@H](Cc1ccccc1)C(N)=O)[C@@H](C)O [HURP832–846 E] (Ac-YGGNLITFEPLQPGEF-NH2) |  | 22 µM | 23 ± 2 | 

Continued, in another order:

Row | binding in FP displacement experiment (14-3-3 theta) | Molecule | Kd (Clathrin NTD [1]) | Kd (Clathrin NTD [2]) [µM] | IC50 (Clathrin NTD [2]; Fig 6A, clathrin NTD, FP displacement, two to three technical replicates per protein preparation, 2 independent preparations, read-out: IC50 values of displacement curves, with SEM) [µM]
4 | no binding | H3COC-DMYALTRGSS(E/pS)LADQRK-NH2 [S375E TOM1_366–382, phosphomimetic TOM1 366-382 peptide] |  |  | 
5 | weak affinity | H3COC-DMYALTRGSS(E/pS)LADQRK-NH2 [pS375 TOM1_366–382, phosphorylated TOM1 366-382 peptide] |  |  | 
6 | no binding | H3COC-DMYALTRGSS(E/pS)LADQRK-NH2 [S375 TOM1_366–382, wild-type TOM1 366-382 (F368Y) peptide] |  |  | 
